Laboratory results published in patent US7462634B2, “N-(pyridin-2-yl)-sulfonamide derivatives” (Agouron Pharmaceuticals, Inc., priority 2005, dated 2008).

What was measured:
human 11βHSD1 [1] = biological target: T1, human 11βHSD1 (Homo sapiens, UniProt P28845); assay: 11βHSD1 enzymatic assay (Kiapp determination); assay type: biochemical
Experimental: The 11βHSD1 assay was performed in a 100 mM Triethanolamine buffer pH 8.0, containing 200 mM NaCl, 0.02% n-dodecyl β-D-maltoside, 5% glycerol, 5 mM β-mercaptoethanol. A typical reaction for the determination of Kiapp values was carried at room temperature in a Corning® u-bottom 96-well plate and is described as follows: 11βHSD1 enzyme (5 nM, final concentration) was pre-incubated in the presence of the inhibitor and NADPH (500 μM, final concentration) for at least 30 minutes in the assay buffer. When pre-incubation was completed, the reaction was initiated by adding the regenerating system (2 mM Glucose-6-Phosphate, 1 U/mL Glucose-6-Phosphate dehydrogenase, and 6 mM MgCl2, all the concentration reported are final in the assay buffer), and 3H-cortisone (200 nM, final concentration). After 60 minutes, 60 μL of the assay mixture was transferred to a second 96-well plate and mixed with an equal volume of dimethylsulfoxide to stop the reaction. A 15 μL aliquot from the reaction mixture was loaded into a C-18 column (Polaris C18-A, 50×4.6 mm, 5μ, 180 Angstrom from Varian) connected to an automated High-throughput Liquid Chromatography instrument developed by Cohesive Technologies, commercially available from Franklin, Mass. USA, with a β-RAM model 3 Radio-HPLC detector from IN/US, commercially available from Tampa, Fla. USA. The substrate and product peaks were separated by using an isocratic mixture of 43:57 methanol to water (v/v) at a flow rate of 1.0 mL/min.
The initial reaction velocities were measured by stopping the reaction at 60 min and by measuring the area of product formation in the absence and the presence of various concentrations of inhibitors. The Kiapp values were determined using the equation for tight-binding inhibitor developed by Morrison, J F. (Morrison J F. Biochim Biophys Acta. 1969; 185: 269-86):
Where vi, and vo are the rates of cortisol formation in the presence and in the absence of inhibitor, respectively, I is the inhibitor concentration and E is the 11βHSD1 concentration in the assay buffer. All the concentrations reported are the final concentrations in the assay buffer
See also Morrison, J. F., “Kinetics of the reversible inhibition of enzyme-catalysed reactions by tight-binding inhibitors,” Biochim Biophys Acta., 1969; 185: 269-86.

human 11βHSD1 [2] = biological target: T1, human 11βHSD1; assay: 11βHSD1 enzymatic assay, percentage of inhibition; assay type: biochemical; conditions: inhibitor at 0.1 uM
Experimental: Percentage of inhibition was determined in a 100 mM Triethanolamine buffer, pH 8.0, 200 mM NaCl, 0.02% n-dodecyl β-D-maltoside and 5mM β-ME. A typical reaction was carried on a Corning® u-bottom 96-well plate and is described as follows: 11βHSD1 enzyme (5 nM, final concentration) was pre-incubated in the presence of the inhibitor and NADPH (500 μM, final concentration) for at least 30 minutes in the assay buffer. When pre-incubation was completed, the reaction was initiated by adding the regenerating system (2 mM Glucose-6-Phosphate, 1 U/mL Glucose-6-Phosphate dehydrogenase, and 6 mM MgCl2, all the concentration reported are final in the assay buffer), and 3H-cortisone (200 nM, final concentration). After 60 minutes, 60 μL of the assay mixture was transferred to a second 96-well plate and mixed with an equal volume of dimethylsulfoxide to stop the reaction. A 15 μL aliquot from the reaction mixture was loaded into a C-18 column (Polaris C18-A, 50×4.6 mm, 5μ, 180 Angstrom from Varian) connected to an automated High-throughput Liquid Chromatography instrument developed by Cohesive Technologies commercially available from Franklin, Mass., with a β-RAM model 3 Radio-HPLC detector from IN/US commercially available from Tampa, Fla. The substrate and product peaks were separated by using an isocratic mixture of 43:57 methanol to water (v/v) at a flow rate of 1.0 mL/min.
Percent Inhibition was calculated based on the following equation: (100−(3H-Cortisol peak area with inhibitor/3Hcortisol peak area without inhibitor)×100).
[1,2-3H]-cortisone is commercially available from American Radiolabeled Chemicals Inc. of St. Louis, Mo. USA. NADPH while Glucose-6-Phosphate and Glucose-6-Phosphate dehydrogenase was purchased from Sigma®.

human 11βHSD1 [3] = biological target: T1, human 11βHSD1; assay: Human Fa2N-4 immortalized cell-based assay (cortisol accumulation); conditions: Fa2N-4 human hepatocyte-derived cells, cortisol EIA, 5 μM cortisone, overnight
Experimental: Human Fa2N-4 Immortalized Cell-Based Assay
Fa2N4 is a cell line derived from human hepatocytes, developed by MultiCell Technologies, Inc. (U.S. Pat. No. 6,107,043), and commercialized by XenoTech LLC via an exclusive license. […] Inhibition of 11βHSD1 enzyme activity was assessed in this cell model by measuring decrease in cortisol (enzyme product) accumulation in cultures co-treated with cortisone (enzyme substrate) and the potential enzyme inhibitor. Cortisol signal was quantitatively determined in the supernatant of treated cells by means of the Correlate-Enzyme Immunoassay (EIA)™Cortisol kit (Assay Designs, Inc.).
Cells were plated in 96 Well Flat Bottom Collagen-coated Microplates, 20,000 cell/well, in 200 μl/well MFE™ (Multi-functional Enhancing—XenoTech, LLC) medium, containing antibiotics (penicillin-streptomycin) and supplemented with 10% of heat inactivated fetal bovine serum. Plates were incubated at 37° C., 5% CO2 overnight. The following day, and before addition of cortisone and inhibitor compounds, medium was changed to Hepatocyte Basal Medium (HBM—Cambrex Bio ScienceWalkersVille, Inc) containing only antibiotics. Thirty-minute pre-incubation with various concentrations of inhibitor compounds (20 μL/well), was followed by addition of 5 μM Cortisone (20 μL/well), and cells were incubated at 37° C., 5% CO2 overnight. At the end of the incubation, 100 μL of each supernatant was analyzed for cortisol content using the Cortisol-EIA kit from Assay Designs, following manufacturers' instructions. Plates were read on a plate reader (Spectra MAX PLUS—Molecular Devices Corporation) at 405 nm, with correction at 580 nm. All results were compared to 100% activation control, i.e. cells treated only with cortisone (no inhibitors added).

human 11βHSD1 [4] = biological target: T1, human 11βHSD1; assay: HEK293-11βHSD1/GRE-Luciferase cell-based assay; design: expressed in transfected cells; conditions: HEK293 cells over-expressing human 11βHSD1, GRE-luciferase readout, cortisone substrate, 6 h; read-out: HEK EC50
Experimental: HEK293-11 βHSD1/GRE-Luciferase Cell-Based Assay
Inhibition of 11βHSD1 enzyme activity was also measured using human kidney HEK293 stable transfected cells, over-expressing human 11βHSD1, and a reporter plasmid containing DNA sequences for specific recognition of glucocorticoid-activated glucocorticoid receptors (GRE), using a method similar to that described in Bujalska et al, Human 11β-hydroxysteroid dehydrogenase: Studies on the stably transfected isoforms and localization of the type 2 isozyme within renal tissue, Steroids, 62(1), […], 77-82 . These sequences were fused to a luciferase reporter gene (Luc) allowing for quantification of 11 βHSD1 enzyme modulation. […] Cortisol (but not cortisone) binds and activates glucocorticoid receptors (GR), which will result in activation of luciferase and production of light (assay readout). A compound with the capability of inhibiting 11βHSD1 will reduce the luciferase signal, as compared to the cortisone control (enzyme substrate).
Cells were plated in 384 Well Flat Bottom White Polystyrene TC-Treated Microplates, at 20,000 cell/well at a volume of 40 μl/well, in serum-free DME Medium. Plates were incubated at 37° C., 5% CO2 overnight before addition of inhibitor compounds. Different concentrations of inhibitor compounds were added in 10% (v/v) dimethylsulfoxide (5 μL/well), followed by addition of 3 μM Cortisone (5 μL/well), and cells were incubated at 37° C. (5% CO2) for six hours. At the end of the incubation, 25 μL/well SteadyLite HTS were added and plates were incubated 10min at room temp on shaker. Plates were then read on Top Count using 384HSD1 program. The concentration of inhibitor compound causing 50% inhibition of light signal was determined via a custom made Excel Macro. All results were compared to 100% activation control, i.e. cells treated only with cortisone (no inhibitors added).

T1 sequence (P28845 whole entry): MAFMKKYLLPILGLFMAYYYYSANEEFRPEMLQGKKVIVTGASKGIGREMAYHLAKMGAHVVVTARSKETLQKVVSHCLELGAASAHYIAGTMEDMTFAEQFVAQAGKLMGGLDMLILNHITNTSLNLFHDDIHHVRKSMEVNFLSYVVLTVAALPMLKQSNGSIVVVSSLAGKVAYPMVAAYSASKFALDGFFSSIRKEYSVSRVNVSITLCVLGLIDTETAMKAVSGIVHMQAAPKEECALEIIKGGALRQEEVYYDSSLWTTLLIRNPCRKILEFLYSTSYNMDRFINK

SMILES | Ki (human 11βHSD1 [1]) | inhibition at 0.1 µM (human 11βHSD1 [2]) | % inh @ 0.1 uM (human 11βHSD1 [2]) | EC50 (human 11βHSD1 [3]) | EC50 (human 11βHSD1 [4])
CCNc1cccc(NS(=O)(=O)c2ccc(-c3ccc(C#N)cc3)cc2)n1 [Example 8, 4′-cyano-N-[6-(ethylamino)pyridin-2-yl]biphenyl4-sulfonamide] | 4.8 nM | 88% | – | – | –
CCC(O)c1cccc(NS(=O)(=O)c2ccc(-c3ccc(C#N)cc3)cc2)n1 (single isomer, unassigned; (+)) [3(+), (+)-4′-cyano-N-[6-(1-hydroxypropyl)pyridin-2-yl]biphenyl-4-sulfonamide] | 5.19 nM | – | 97.9% | 11.6 nM | 50.7 nM
CCC(O)c1cccc(NS(=O)(=O)c2ccc(-c3ccc(C#N)cc3)cc2)n1 (single isomer, unassigned; (-)) [3(−), (−)4′-cyano-N-[6-(1-hydroxypropyl)pyridin-2-yl]biphenyl-4-sulfonamide] | – | – | 59% | – | –
CC(O)c1cccc(NS(=O)(=O)c2ccc(-c3ccc(C#N)cc3)cc2)n1 (single isomer, unassigned; (-)) [2(−), (−)4′-Cyano-N-[6-(1-hydroxyethyl)pyridin-2-yl]biphenyl4-sulfonamide] | – | – | 53% | – | –
Cc1cc(-c2ccc(C#N)cc2)ccc1S(=O)(=O)Nc1cccc(C(C)O)n1 (single isomer, unassigned; (+)) [4(+), (+)4′-Cyano-N-[6-(1-hydroxyethyl)pyridin-2-yl]-3-methylbiphenyl4-sulfonamide] | 2.7 nM | 100% | – | 7.86 nM | 23.1 nM
CC(O)c1cccc(NS(=O)(=O)c2ccc(-c3ccc(C#N)cc3)cc2)n1 (single isomer, unassigned; (+)) [2(+), (+)-4′-Cyano-N-[6-(1-hydroxyethyl)pyridin-2-yl]biphenyl4-sulfonamide] | 19 nM | – | 85% | 56 nM | 160 nM
Cc1cc(N)nc(NS(=O)(=O)c2cc(C)c(Cl)cc2F)c1 [Example 6, N-(6-amino-4-methylpyridin-2-yl)-4-chloro-2-fluoro-5-methylbenzenesulfonamide] | 2.8 nM | 98% | – | – | –
N#Cc1ccc(-c2ccc(S(=O)(=O)Nc3cccc(CCO)n3)cc2)cc1 [Comparative Example A, reference compound] | – | – | – | 77.7 nM | 423 nM
Cc1cc(N)nc(NS(=O)(=O)c2sc(-c3ccc(C#N)cc3)nc2C)c1 [Example 1, N-(6-amino-4-methylpyridin-2-yl)-2-(4-cyanophenyl)-4-methyl-1,3-thiazole-5-sulfonamide] | 1.8 nM | 100% | – | – | –
N#Cc1ccc(-c2ccc(S(=O)(=O)Nc3cccc(CO)n3)cc2)cc1 [Example 9, 4′-cyano-N-[6-(hydroxymethyl)pyridin-2-yl]biphenyl-4-sulfonamide] | 2.8 nM | 100% | – | 21.8 nM | 59 nM
Cc1cc(-c2ccc(C#N)cc2)ccc1S(=O)(=O)Nc1cccc(C(C)O)n1 (single isomer, unassigned; (-)) [4(−), (−)4′-Cyano-N-[6-(1-hydroxyethyl)pyridin-2-yl]-3-methylbiphenyl4-sulfonamide] | – | 84% | – | – | –
Cc1cc(S(=O)(=O)Nc2cccc(N)n2)c(F)cc1Cl [Example 5, N-(6-aminopyridin-2-yl)-4-chloro-2-fluoro-5-methylbenzenesulfonamide] | 9.7 nM | 93% | – | – | –
CCCCOc1ccc(S(=O)(=O)Nc2cccc(N)n2)cc1 [Example 7, N-(6-aminopyridin-2-yl)-4-butoxybenzenesulfonamide] | 3.8 nM | 100% | – | – | –
